According to patent US8076487B2, “Pyridone derivative and herbicide” (Kumiai Chemical Industry Co., Ltd., priority 2006, dated 2011):

What was measured:
Format in all cases: in vivo
[1] = test system: Japanese bulrush (Scirpus juncoides Roxb.); assay: Test Example 1: herbicidal effect by soil application to paddy field; conditions: paddy field soil application; active ingredient 1,000 g per 1 hectare; wettable powder added dropwise to water surface the day after sowing; examined on the 21st day after application
How it was run: (§1)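 Under greenhouse conditions, seeds sown on puddled paddy soil in 100 cm2 pots under 3 cm of standing water received the test compound; injury was assessed with a standard scoring scheme three weeks (day 21) after treatment.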

[2] = test system: early watergrass (Echinochloa oryzicola Vasing); assay: as above; conditions: paddy field soil application; active ingredient 1,000 g per 1 hectare; wettable powder added dropwise to water surface the day after sowing; examined on the 21st day after application
How it was run: as §1

[3] = test system: heartshape false pickerelweed (Monochoria vaginalis (Burm.f.) C.Presl); assay: as above; conditions: paddy field soil application; active ingredient 1,000 g per 1 hectare; wettable powder added dropwise to water surface the day after sowing; examined on the 21st day after application
How it was run: as §1

[4] = test system: barnyardgrass (Echinochloa crus-galli (L.) P. Beauv. var. crus-galli); assay: Test Example 2: herbicidal effect by soil application to upland field; conditions: soil surface spray, upland field soil, 1,000 g active ingredient per hectare, 21st day after application
How it was run: (§2)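 Soil-applied wettable powder, 1,000 g a.i./ha, sprayed after sowing onto covered field soil. Effect rated on a standard scale 21 days later in a greenhouse.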

[5] = test system: green foxtail (Setaria viridis (L.) P. Beauv.); assay: as above; conditions: soil surface spray, upland field soil, 1,000 g active ingredient per hectare, 21st day after application
How it was run: as §2

[6] = test system: slender amaranth (Amaranthus viridis L.); assay: as above; conditions: soil surface spray, upland field soil, 1,000 g active ingredient per hectare, 21st day after application
How it was run: as §2

[7] = test system: velvetleaf (Abutilon theophrasti medicus); assay: as above; conditions: soil surface spray, upland field soil, 1,000 g active ingredient per hectare, 21st day after application
How it was run: as §2

[8] = test system: barnyardgrass (Echinochloa crus-galli (L.) P. Beauv. var. crus-galli); assay: Test Example 3: herbicidal effect by application to upland field (foliage treatment); conditions: foliage treatment, 1,000 g active ingredient per 1 hectare, 14th day after application, greenhouse
How it was run: (§3)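 Dose 1,000 g active ingredient/ha, sprayed as diluted wettable powder over entire plants two weeks after sowing in field soil. Kept in greenhouse; herbicidal effect graded on a standard scale on day 14.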

[9] = test system: green foxtail (Setaria viridis (L.) P. Beauv.); assay: as above; conditions: foliage treatment, 1,000 g active ingredient per 1 hectare, 14th day after application, greenhouse
How it was run: as §3

[10] = test system: slender amaranth (Amaranthus viridis L.); assay: as above; conditions: foliage treatment, 1,000 g active ingredient per 1 hectare, 14th day after application, greenhouse
How it was run: as §3

[11] = test system: velvetleaf (Abutilon theophrasti medicus); assay: as above; conditions: foliage treatment, 1,000 g active ingredient per 1 hectare, 14th day after application, greenhouse
How it was run: as §3

SMILES	herbicidal effect, Scirpus juncoides Roxb. [1]	herbicidal effect, Echinochloa oryzicola Vasing [2]	herbicidal effect, Monochoria vaginalis (Burm. f.) C. Presl [3]	herbicidal effect (index), Barnyardgrass [4]	herbicidal effect (index), Green Foxtail [5]	herbicidal effect (index), Slender Amaranth [6]	herbicidal effect (index), Velvetleaf [7]	herbicidal effect, Barnyardgrass [8]	herbicidal effect, Green Foxtail [9]	herbicidal effect, Slender Amaranth [10]	herbicidal effect, Velvetleaf [11]
CCCCCCCC(=O)Oc1c(C(=O)c2ccc(C(F)(F)F)n(CC3CCCO3)c2=O)cnn1C (stereo not shown) [IV-130]	5 (90% or more of herbicidal effect and crop phytotoxicity)	5 (90% or more of herbicidal effect and crop phytotoxicity)	5 (90% or more of herbicidal effect and crop phytotoxicity)	4 (70 to less than 90% of herbicidal effect and crop phytotoxicity)	4 (70 to less than 90% of herbicidal effect and crop phytotoxicity)	5 (90% or more of herbicidal effect and crop phytotoxicity)	5 (90% or more of herbicidal effect and crop phytotoxicity)	5 (90% or more of herbicidal effect and crop phytotoxicity)	4 (70 to less than 90% of herbicidal effect and crop phytotoxicity)	5 (90% or more of herbicidal effect and crop phytotoxicity)	4 (70 to less than 90% of herbicidal effect and crop phytotoxicity)
CCCS(=O)(=O)Oc1c(C(=O)c2ccc(C(F)(F)F)n(CC3CCCO3)c2=O)cnn1C (stereo not shown) [IV-140]	5 (90% or more of herbicidal effect and crop phytotoxicity)	5 (90% or more of herbicidal effect and crop phytotoxicity)	5 (90% or more of herbicidal effect and crop phytotoxicity)	5 (90% or more of herbicidal effect and crop phytotoxicity)	5 (90% or more of herbicidal effect and crop phytotoxicity)	5 (90% or more of herbicidal effect and crop phytotoxicity)	5 (90% or more of herbicidal effect and crop phytotoxicity)	5 (90% or more of herbicidal effect and crop phytotoxicity)	3 (50 to less than 70% of herbicidal effect and crop phytotoxicity)	5 (90% or more of herbicidal effect and crop phytotoxicity)	5 (90% or more of herbicidal effect and crop phytotoxicity)
Cn1ncc(C(=O)c2ccc(C(F)(F)F)n(CC3CCOC3)c2=O)c1O (stereo not shown) [IV-143]	5 (90% or more of herbicidal effect and crop phytotoxicity)	5 (90% or more of herbicidal effect and crop phytotoxicity)	5 (90% or more of herbicidal effect and crop phytotoxicity)	5 (90% or more of herbicidal effect and crop phytotoxicity)	5 (90% or more of herbicidal effect and crop phytotoxicity)	5 (90% or more of herbicidal effect and crop phytotoxicity)	5 (90% or more of herbicidal effect and crop phytotoxicity)	5 (90% or more of herbicidal effect and crop phytotoxicity)	5 (90% or more of herbicidal effect and crop phytotoxicity)	5 (90% or more of herbicidal effect and crop phytotoxicity)	5 (90% or more of herbicidal effect and crop phytotoxicity)
CNn1c(C(F)(F)F)ccc(C(=O)c2cnn(C)c2O)c1=O [IV-146]	5 (90% or more of herbicidal effect and crop phytotoxicity)	5 (90% or more of herbicidal effect and crop phytotoxicity)	5 (90% or more of herbicidal effect and crop phytotoxicity)	5 (90% or more of herbicidal effect and crop phytotoxicity)	5 (90% or more of herbicidal effect and crop phytotoxicity)	5 (90% or more of herbicidal effect and crop phytotoxicity)	5 (90% or more of herbicidal effect and crop phytotoxicity)	5 (90% or more of herbicidal effect and crop phytotoxicity)	5 (90% or more of herbicidal effect and crop phytotoxicity)	5 (90% or more of herbicidal effect and crop phytotoxicity)	5 (90% or more of herbicidal effect and crop phytotoxicity)
CCCNn1c(C(F)(F)F)ccc(C(=O)c2cnn(C)c2O)c1=O [IV-148]	5 (90% or more of herbicidal effect and crop phytotoxicity)	5 (90% or more of herbicidal effect and crop phytotoxicity)	5 (90% or more of herbicidal effect and crop phytotoxicity)	5 (90% or more of herbicidal effect and crop phytotoxicity)	5 (90% or more of herbicidal effect and crop phytotoxicity)	5 (90% or more of herbicidal effect and crop phytotoxicity)	5 (90% or more of herbicidal effect and crop phytotoxicity)	5 (90% or more of herbicidal effect and crop phytotoxicity)	5 (90% or more of herbicidal effect and crop phytotoxicity)	5 (90% or more of herbicidal effect and crop phytotoxicity)	5 (90% or more of herbicidal effect and crop phytotoxicity)
CC(=O)Oc1c(C(=O)c2ccc(C(F)(F)F)n(C)c2=O)cnn1C [IV-174]	5 (90% or more of herbicidal effect and crop phytotoxicity)	5 (90% or more of herbicidal effect and crop phytotoxicity)	5 (90% or more of herbicidal effect and crop phytotoxicity)	5 (90% or more of herbicidal effect and crop phytotoxicity)	5 (90% or more of herbicidal effect and crop phytotoxicity)	5 (90% or more of herbicidal effect and crop phytotoxicity)	5 (90% or more of herbicidal effect and crop phytotoxicity)	5 (90% or more of herbicidal effect and crop phytotoxicity)	5 (90% or more of herbicidal effect and crop phytotoxicity)	5 (90% or more of herbicidal effect and crop phytotoxicity)	5 (90% or more of herbicidal effect and crop phytotoxicity)
Cn1ncc(C(=O)c2ccc(C(F)(F)F)n(C)c2=O)c1OCc1ccccc1 [IV-190]	5 (90% or more of herbicidal effect and crop phytotoxicity)	5 (90% or more of herbicidal effect and crop phytotoxicity)	5 (90% or more of herbicidal effect and crop phytotoxicity)	5 (90% or more of herbicidal effect and crop phytotoxicity)	5 (90% or more of herbicidal effect and crop phytotoxicity)	5 (90% or more of herbicidal effect and crop phytotoxicity)	5 (90% or more of herbicidal effect and crop phytotoxicity)	5 (90% or more of herbicidal effect and crop phytotoxicity)	4 (70 to less than 90% of herbicidal effect and crop phytotoxicity)	5 (90% or more of herbicidal effect and crop phytotoxicity)	5 (90% or more of herbicidal effect and crop phytotoxicity)
CCCS(=O)(=O)Oc1c(C(=O)c2ccc(C(F)(F)F)n(C)c2=O)cnn1C [IV-196]	5 (90% or more of herbicidal effect and crop phytotoxicity)	5 (90% or more of herbicidal effect and crop phytotoxicity)	5 (90% or more of herbicidal effect and crop phytotoxicity)	5 (90% or more of herbicidal effect and crop phytotoxicity)	4 (70 to less than 90% of herbicidal effect and crop phytotoxicity)	5 (90% or more of herbicidal effect and crop phytotoxicity)	5 (90% or more of herbicidal effect and crop phytotoxicity)	4 (70 to less than 90% of herbicidal effect and crop phytotoxicity)	3 (50 to less than 70% of herbicidal effect and crop phytotoxicity)	5 (90% or more of herbicidal effect and crop phytotoxicity)	5 (90% or more of herbicidal effect and crop phytotoxicity)
